{"source": "BindingDB's records for doi:10.1021/jm3012917", "about": "(Philipps University Marburg, 2013)", "target": "Coagulation factor VII (Homo sapiens) (UniProt P08709)", "sequence (P08709 whole entry, looked up)": "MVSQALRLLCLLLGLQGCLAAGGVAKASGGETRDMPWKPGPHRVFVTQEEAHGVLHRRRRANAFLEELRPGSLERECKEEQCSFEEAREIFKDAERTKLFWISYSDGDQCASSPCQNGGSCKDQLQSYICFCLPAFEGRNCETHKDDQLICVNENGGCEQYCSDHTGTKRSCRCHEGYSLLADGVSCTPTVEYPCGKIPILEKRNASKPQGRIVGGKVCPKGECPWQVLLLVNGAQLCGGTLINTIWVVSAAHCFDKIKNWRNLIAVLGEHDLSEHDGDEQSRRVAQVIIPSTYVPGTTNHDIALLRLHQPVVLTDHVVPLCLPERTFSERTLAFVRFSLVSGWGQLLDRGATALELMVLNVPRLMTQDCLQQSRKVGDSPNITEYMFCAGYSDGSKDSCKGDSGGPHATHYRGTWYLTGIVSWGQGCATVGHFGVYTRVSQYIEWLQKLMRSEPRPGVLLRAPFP", "assay": "Inhibition of human FVIIa"}
{"molecule": "N=C(N)c1ccc(CNC(=O)[C@@H]2Cc3ccc(cc3)NC(=O)CN3CCN(CC3)CC(=O)Nc3ccc(cc3)C[C@@H](NS(=O)(=O)Cc3ccccc3)C(=O)N2)cc1", "values": [{"measurement": "Ki", "result": "> 30", "unit": "µM"}]}
{"molecule": "N=C(N)c1ccc(CNC(=O)[C@@H]2Cc3ccc(cc3)NC(=O)CCN3CCN(CCC(=O)Nc4ccc(cc4)C[C@@H](NS(=O)(=O)Cc4ccccc4)C(=O)N2)CC3)cc1", "values": [{"measurement": "Ki", "result": "> 50", "unit": "µM"}]}
